We go through 1 molecule from patent publication US12559470B2, “FGFR inhibitors and uses thereof” (University of Southern California, priority 2018, dated 2026).

Each structure is given as a SMILES string.

The target in the experiment is FGFR2 (Homo sapiens, UniProt P21802). Put plainly: In vitro inhibitory assay (IC50) against FGFR2. The format is biochemical. How it is done:
The efficacy of the compounds to inhibit the kinase activity of FGFRs was measured by the determination of the IC50 value.
The results are listed in Table 4 expressed as IC50 values (the concentration of compound at which 50% of the enzyme activity is inhibited).

In general, IC50 refers to the concentration that inhibits the measured activity by half.

Sequence of FGFR2 (P21802 22-821): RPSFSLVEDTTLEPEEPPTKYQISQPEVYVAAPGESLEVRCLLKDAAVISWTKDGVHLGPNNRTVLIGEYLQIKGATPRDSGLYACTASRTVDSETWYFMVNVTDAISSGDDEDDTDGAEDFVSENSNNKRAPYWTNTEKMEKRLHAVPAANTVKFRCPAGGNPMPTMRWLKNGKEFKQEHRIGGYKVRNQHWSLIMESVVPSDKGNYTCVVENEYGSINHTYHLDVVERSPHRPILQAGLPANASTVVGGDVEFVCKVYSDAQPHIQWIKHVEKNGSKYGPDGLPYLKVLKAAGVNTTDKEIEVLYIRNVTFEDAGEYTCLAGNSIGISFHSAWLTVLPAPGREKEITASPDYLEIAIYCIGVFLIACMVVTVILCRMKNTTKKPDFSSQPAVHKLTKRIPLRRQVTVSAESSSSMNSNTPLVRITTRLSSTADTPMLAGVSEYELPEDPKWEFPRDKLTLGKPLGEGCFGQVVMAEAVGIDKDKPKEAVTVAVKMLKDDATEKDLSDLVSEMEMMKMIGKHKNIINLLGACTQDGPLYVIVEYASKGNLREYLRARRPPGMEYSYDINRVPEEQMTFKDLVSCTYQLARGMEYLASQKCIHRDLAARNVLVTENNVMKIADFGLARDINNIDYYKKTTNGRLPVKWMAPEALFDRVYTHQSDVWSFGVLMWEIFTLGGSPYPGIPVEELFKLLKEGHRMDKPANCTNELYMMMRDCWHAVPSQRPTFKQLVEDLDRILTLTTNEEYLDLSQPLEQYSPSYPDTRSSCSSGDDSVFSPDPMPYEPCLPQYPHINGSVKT

For the molecule `CCN1CCN(c2ccc(Nc3cc(-c4cccnc4Nc4c(Cl)c(OC)cc(OC)c4Cl)ncn3)cc2)CC1` [Compound 1, 6-(2-((2,6-dichloro-3,5-dimethoxyphenyl)amino)pyridin-3-yl)-N-(4-(4-ethylpiperazin-1-yl)phenyl)pyrimidin-4-amine], 6 nM corresponded to half-maximal inhibition (IC50).
